Measured values published in US20030175848A1, “Substituted dithiobisnitrobenzenes and their applications” (Institut Pasteur De Lille, priority 1998, published 2003).
Where two headings read alike, the source gives them in different places.

Experiments:
[1] = biological target: T1, trypanothione reductase from Trypanosoma cruzi (TcTR) (Trypanosoma cruzi, UniProt P28593); test: Kinetic parameters of substrates with recombinant trypanothione reductase
Experimental: The TcTR concentration is determined by measuring the number of subunits containing FAD at 461 nm (ε=11.3 mM^−1×cm^−1); the enzymatic activity is tested as specified in (28). One TR unit corresponds to 1 μmol of T(S)2 reduced per minute at 25° C. in a buffer A (20 mM Hepes, pH 7.25 containing 1 mM EDTA and 0.15 M KCl).
The enzyme stock solutions used for the kinetic determinations are pure (verification in SDS-PAGE) and have a specific activity of 137 U/mg in the T(S)2 reduction test performed in the presence of 500 μM NADPH and 518 μM T(S)2 in a buffer A.
All the kinetic studies are carried out in the same buffer at 25° C., in the presence of 200 μM of NADPH.
All the tests were carried out at 25° C. in 20 mM HEPES, 1 Mm EDTA, 150 mM KCl, at pH 7.25 (buffer A) and in the presence of 0.2 mM NADPH.

[2] = biological target: T2, human thioredoxin reductase (hTrxR) (Homo sapiens, UniProt Q16881); test: Kinetic parameters of substrates with native hTrxR (placenta); assay type: biochemical; settings: substrate of native hTrxR (placenta), 25° C., buffer A pH 7.25, 0.2 mM NADPH
T2 construct: U of native hTrxR; from tissue; host or cells: human placenta
T2 sequence (Q16881 151-649 limits assumed): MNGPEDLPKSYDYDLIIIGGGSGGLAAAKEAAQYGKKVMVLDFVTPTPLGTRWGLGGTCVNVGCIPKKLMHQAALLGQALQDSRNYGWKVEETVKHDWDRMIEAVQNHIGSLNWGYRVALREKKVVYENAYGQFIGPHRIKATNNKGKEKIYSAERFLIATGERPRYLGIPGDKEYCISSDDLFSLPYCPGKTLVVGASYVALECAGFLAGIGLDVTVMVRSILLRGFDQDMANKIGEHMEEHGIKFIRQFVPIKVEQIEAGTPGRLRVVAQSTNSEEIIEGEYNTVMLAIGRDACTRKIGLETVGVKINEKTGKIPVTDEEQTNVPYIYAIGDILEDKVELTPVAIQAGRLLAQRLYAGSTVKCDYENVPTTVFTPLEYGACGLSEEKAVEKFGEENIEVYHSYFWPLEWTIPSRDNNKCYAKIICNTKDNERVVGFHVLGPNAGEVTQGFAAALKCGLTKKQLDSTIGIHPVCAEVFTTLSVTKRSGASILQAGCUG
Experimental: The human thioredoxin reductase (hTrxR) is purified from placenta as specified in J. E. Oblong et al., Biochemistry, 1993, 32, 7271-7277.
The enzyme is added to a reaction mixture comprising 100 mM potassium phosphate, 2 mM EDTA, pH 7.4 and 3 mM DTNB; after the addition of 200 μM NADPH, the increase in the absorbence is measured at 412 nm and at 25° C. Using the DTNB test, one TrxR unit is defined as the NADPH-dependent production of […] of 5-thio-2-nitrobenzoate (ε412 nm=13.6 mM^−1.cm^−1). The TrxR concentrations are determined by measuring subunits containing FAD at 450 nm (ε=11.3 mM^−1.cm^−1).

[3] = biological target: T3, thioredoxin reductase from Plasmodium falciparum (PfTrxR) (Plasmodium falciparum, UniProt Q25861); test: Kinetic parameters of substrates with recombinant PfTrxR; assay type: biochemical; settings: substrate of recombinant PfTrxR; 25° C., buffer A pH 7.25, 0.2 mM NADPH
T3 construct: made in house; host or cells: E. coli SG5 (glutathione reductase deficient)
T3 sequence (Q25861 1-541): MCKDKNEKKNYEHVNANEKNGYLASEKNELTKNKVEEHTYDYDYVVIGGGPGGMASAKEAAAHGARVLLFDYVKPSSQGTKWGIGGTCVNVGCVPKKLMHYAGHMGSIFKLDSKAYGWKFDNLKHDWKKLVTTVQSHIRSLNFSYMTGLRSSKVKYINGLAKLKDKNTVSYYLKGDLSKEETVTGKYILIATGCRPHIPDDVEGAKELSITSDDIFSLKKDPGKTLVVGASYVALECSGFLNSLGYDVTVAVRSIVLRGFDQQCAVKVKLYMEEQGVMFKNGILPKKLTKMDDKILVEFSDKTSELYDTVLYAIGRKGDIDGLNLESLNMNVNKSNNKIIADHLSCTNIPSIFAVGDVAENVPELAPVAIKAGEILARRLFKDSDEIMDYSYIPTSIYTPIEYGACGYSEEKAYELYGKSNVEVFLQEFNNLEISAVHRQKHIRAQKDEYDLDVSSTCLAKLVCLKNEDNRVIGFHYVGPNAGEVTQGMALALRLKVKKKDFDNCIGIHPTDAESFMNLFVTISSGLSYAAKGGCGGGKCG
Experimental: […] Using the DTNB test, one TrxR unit is defined as the NADPH-dependent production of […] of 5-thio-2-nitrobenzoate (ε412 nm=13.6 mM^−1.cm^−1). The TrxR concentrations are determined by measuring subunits containing FAD at 450 nm (ε=11.3 mM^−1.cm^−1).

[4] = biological target: T2, human thioredoxin reductase (hTrxR); settings: substrate of native hTrxR (placenta), cited from earlier work; for Km: references [29], [38]
[5] = biological target: T3, thioredoxin reductase from Plasmodium falciparum (PfTrxR); settings: cited from earlier work
[6] = biological target: T1, trypanothione reductase from Trypanosoma cruzi (TcTR); parameters: made in house; host or cells: Escherichia coli SG5 carrying pIBITczTR; settings: cited from earlier work
[7] = biological target: T4, Native hTrxR (lung adenocarcinoma cells) (Homo sapiens, UniProt Q16881); settings: substrate of native hTrxR (lung adenocarcinoma cells); reference [22]; cited from earlier work
T4 construct: host or cells: human lung adenocarcinoma cells (endogenous enzyme, purified)
T4 sequence (Q16881 151-649 limits assumed): T2 sequence (Q16881 151-649 limits assumed)

[8] = substrate of recombinant PfTrxR, reference [26]
[9] = substrate of recombinant TcTR, reference [1]

T1 sequence (P28593 whole entry): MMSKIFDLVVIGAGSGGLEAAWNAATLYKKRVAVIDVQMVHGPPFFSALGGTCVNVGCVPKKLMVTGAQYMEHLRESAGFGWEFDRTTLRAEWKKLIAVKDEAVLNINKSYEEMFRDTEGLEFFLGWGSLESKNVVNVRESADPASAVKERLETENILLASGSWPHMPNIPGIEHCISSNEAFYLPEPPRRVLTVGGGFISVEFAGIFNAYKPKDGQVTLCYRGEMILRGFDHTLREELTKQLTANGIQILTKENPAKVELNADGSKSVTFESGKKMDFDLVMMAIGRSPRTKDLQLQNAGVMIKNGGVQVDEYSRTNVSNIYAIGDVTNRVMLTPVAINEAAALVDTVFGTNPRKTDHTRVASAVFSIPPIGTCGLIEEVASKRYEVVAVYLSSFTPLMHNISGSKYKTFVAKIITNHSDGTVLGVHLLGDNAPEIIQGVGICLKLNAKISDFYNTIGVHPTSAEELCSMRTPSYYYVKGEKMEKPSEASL

For CN(C)CCCNC(=O)c1cc(SSc2ccc([N+](=O)[O-])c(C(=O)NCCCN(C)C)c2)ccc1[N+](=O)[O-] [Compound 1], the “reduction of Km compared with trypanothione disulphide” value ([1]; substrate for TR) was 30% and the Km [2] was 7 µM.

With CN1CCN(C(=O)c2cc(SSc3ccc([N+](=O)[O-])c(C(=O)N4CCN(C)CC4)c3)ccc2[N+](=O)[O-])CC1 [Compound 3] the “suitable as substrate (words spread over the Km, Kcat and Kcat/Km cells)” value ([1]; recombinant TcTR, 25° C., buffer A, 0.2 mM NADPH) was “Not”, the Kcat [3] was 6 s⁻¹ and the Kcat [2] was 38 s⁻¹. The Km ([2]; read-out: Km) was 10 µM.

In the case of O=C(O)c1cc(SSc2ccc([N+](=O)[O-])c(C(=O)O)c2)ccc1[N+](=O)[O-] [DTNB, 5,5′-dithiobis(2-nitrobenzoic) acid], the Kcat ([4]; reference [38]) is given as 67 s⁻¹, the Km [4] is given as 400 µM and the Km ([5]; substrate of PfTrxR, stated in text) is given as about 1000 µM. For the same compound, the Kcat [5, 8] was 7 s⁻¹, the Km [5, 8] was 1090 µM and the “suitable as substrate (words spread over the Km, Kcat and Kcat/Km cells)” value ([6]; recombinant TcTR, reference [13]) was “Not”.

In the case of N[C@@H](CCC(=O)N[C@H]1CSSC[C@H](NC(=O)CC[C@H](N)C(=O)O)C(=O)NCC(=O)NCCCNCCCCNC(=O)CNC1=O)C(=O)O [TS2, oxidized N^1, N^8-bis(glutathionyl)-spermidine], the Kcat [6, 9] is given as 240 s⁻¹ and the Km [6, 9] is given as 45 µM.

For “E. coli Trx: thioredoxin (Trx) of E. coli, substrate of thioredoxin reductase”, the Kcat [7] is given as 5.6 s⁻¹, the Km [7] is given as 34 µM and the Km [4] is given as 20 µM. For the same compound, the Kcat [5, 8] was over 5 s⁻¹ and the Km [5, 8] was 66 µM.
